Laboratory results reported in patent publication US20070173488A1, “Pyrazolothiazole Protein Kinase Modulators” (SGX Pharmaceuticals, Inc., priority 2005, published 2007).

Columns and labels:
AurA = biological target: T1, AurA (Homo sapiens, UniProt O14965); experiment: AurA Luminescence-based Enzyme Assay (Kinase-Glo); assay type: biochemical
T1 construct: made in house; host or cells: Sf9 insect cells
T1 sequence (O14965 1-403): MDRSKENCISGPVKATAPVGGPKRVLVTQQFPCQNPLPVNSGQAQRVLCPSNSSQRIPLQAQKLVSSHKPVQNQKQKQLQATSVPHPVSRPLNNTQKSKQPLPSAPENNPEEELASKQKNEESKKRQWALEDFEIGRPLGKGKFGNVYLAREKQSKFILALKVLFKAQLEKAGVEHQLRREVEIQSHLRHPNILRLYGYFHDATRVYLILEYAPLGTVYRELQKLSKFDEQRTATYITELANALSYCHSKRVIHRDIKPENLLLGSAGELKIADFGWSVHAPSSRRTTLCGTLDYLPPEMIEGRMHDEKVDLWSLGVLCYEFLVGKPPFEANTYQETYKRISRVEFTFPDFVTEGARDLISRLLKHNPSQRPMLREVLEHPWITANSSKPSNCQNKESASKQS
Description: Homogeneous luminescence-based inhibitor screening assays were developed for c-Abl, MET, AurA, and PDK1 kinases (among others). Each of these assays made use of an ATP depletion assay (Kinase-Glo™, Promega Corporation, Madison, Wis.) to quantitate kinase activity. The Kinase-Glo™ format uses a thermostable luciferase to generate luminescent signal from ATP remaining in solution following the kinase reaction. The luminescent signal is inversely correlated with the amount of kinase activity.
Dose response was analyzed using the equation: y=min+{(max−min)/(1 +10^[compound]-logIC50)}, where y is the observed initial slope, max=the slope in the absence of inhibitor, min=the slope at infinite inhibitor, and the IC50 is the [compound] that corresponds to ½ the total observed amplitude (Amplitude=max−min).
The Sf9 insect cell pellets (˜18 g) produced from 6 L of cultured cells expressing human Aurora-2 were resuspended in 50 mM Na Phosphate pH 8.0, 500 mM NaCl, 10% glycerol, 0.2% n-octyl-β-D-glucopyranoside (BOG) and 3 mM β-Mercaptoethanol (BME). One tablet of Roche Complete, EDTA-free protease inhibitor cocktail (Cat# 1873580) and 85 units Benzonase (Novagen Cat#70746-3)) were added per 1 L of original culture. Pellets were resuspended in approximately 50 ml per 1 L of original culture and were then sonicated on ice with two 30-45 sec bursts (100% duty cycle). Debris was removed by centrifugation and the supernatant was passed through a 0.8 μm syringe filter before being loaded onto a 5 ml Ni^2+ HiTrap column (Pharmacia). The column was washed with 6 column volumes of 50 mM Na Phosphate pH 8.0, 500 mM NaCl, 10% glycerol, 3 mM BME. The protein was eluted using a linear gradient of the same buffer containing 500 mM Imidazole. The eluant (24 ml) was cleaved overnight at 4° C. in a buffer containing 50 mM Na Phosphate pH 8.0, 500 mM NaCl, 10% glycerol, 3 mM BME and 10,000 units of TEV (Invitrogen Cat#10127-017). The protein was passed over a second nickel affinity column as described above; the flow-through was collected. The cleaved protein fractions were combined and concentrated using spin concentrators. Further purification was done by gel filtration chromatography on a S75 sizing column in 50 mM Na Phosphate (pH 8.0), 250mM NaCl, 1 mM EDTA, 0.1 mM AMP-PNP or ATP buffer, and 5 mM DTT. The cleanest fractions were combined and concentrated to approximately 8-11 mg/ml, and were either flash frozen in liquid nitrogen in 120 μl aliquots and stored at −80° C., or stored at 4° C.
AurA Luminescence-based Enzyme Assay
Materials: Kemptide peptide substrate=LRRASLG (Biopeptide, San Diego, Calif.), ATP (Sigma Cat#A-3377, FW=551), HEPES buffer, pH 7.5, 10% Brij 35 (Calbiochem Cat# 203728), MgCl2, Staurosporine (Streptomyces sp. Sigma Cat#85660-1MG), white Costar 384-well flat -bottom plate (VWR Cat#29444-088), Autophosphorylated AurA kinase (see below), Kinase-Glo™ (Promega Cat#V6712).
Stock Solutions: 10 mM Kemptide peptide (7.72 mg/ml in water), stored at −20° C.; 100 mM HEPES buffer +0.015% Brij 35, pH 7.5 (5 ml 1M HEPES stock +75 μL 10% Brij 35+45 ml miliQH2O); 10 mM ATP (5.51 mg/ml in dH2O) stored at −20° C. (diluted 50 μl into total of 10 ml miliQH2O daily=50 μM ATP working stock); 100 mM MgCl2; 200 μM Staurosporine, 2× Kinase-Glo™ reagent (made fresh or stored at −20° C.).
AurA Autophosphorylation Reaction: ATP and MgCl2 were added to 1-5 mg/ml AurA at final concentrations of 10 mM and 100 mM, respectively. The autophosphorylation reaction was incubated at 21° C. for 2-3 h. The reaction was stopped by the addition of EDTA to a final concentration of 50 mM, and samples were flash frozen with liquid N2 and stored at −80° C.
Standard Assay Setup for 384-well format (20 μl kinase reaction, 40 μL detection reaction): 10 mM MgCl2; 0.2mM Kemptide peptide; 1 μl test compound (in DMSO); 0.3 μg/ml Autophosphorylated AurA kinase; 10 μM ATP; 100 mM HEPES+0.015% Brij buffer. Positive controls contained DMSO with no test compound. […]

CDK4/CycD1 = biological target: T2, CDK4/CycD1 (Homo sapiens, UniProt P11802); experiment: 33PanQuinase Activity Assay (ProQuinase GmbH); assay type: biochemical
T2 construct: purchased ProQuinase GmbH, Freiburg, Germany (assay service)
Description: ^33PanQuinase Activity Assay (ProQuinase GmbH) and SelectScreen™ Kinase Profiling (Invitrogen Corp.)
^33PanQuinase Activity Assay is a proprietary, radioisotopic protein kinase assay developed by ProQuinase GmbH, Freiburg, Germany. Details on assay conditions can be found on the company's website.

HCT116 cells = experiment: 96-well XTT cell survival assay (HCT116 cells); assay type: cell-based; settings: Homo sapiens, HCT-116, 72 hours
Description: HCT116 cells were maintained in McCoy's 5a Medium supplemented with 10% fetal bovine serum (FBS) 2 mM L-Glutamine and 100 units penicillin/100 μg streptomycin, at 37° C. in 5% CO2.
Compounds were tested in the following assays in duplicate.
96-well XTT assay (HCT116 cells): Cells were grown in growth media containing various concentrations of compounds (duplicates) on a 96-well flat bottom plate for 72 hours at 37° C. in 5% CO2. The starting cell number was 5000 cells per well and volume was 120 μl. At the end of the 72-hour incubation, 40 μl of XTT labeling mixture (50:1 solution of sodium 3′-[1-(phenylaminocarbonyl)-3,4-tetrazolium]-bis (4-methoxy-6-nitro) benzene sulfonic acid hydrate and Electron-coupling reagent: PMS (N-methyl dibenzopyrazine methyl sulfate) were added to each well of the plate. After an additional 2-6 hours of incubation at 37° C., the absorbance reading at 650 nm was measured with a spectrophotometer.

T2 sequence (P11802 whole entry): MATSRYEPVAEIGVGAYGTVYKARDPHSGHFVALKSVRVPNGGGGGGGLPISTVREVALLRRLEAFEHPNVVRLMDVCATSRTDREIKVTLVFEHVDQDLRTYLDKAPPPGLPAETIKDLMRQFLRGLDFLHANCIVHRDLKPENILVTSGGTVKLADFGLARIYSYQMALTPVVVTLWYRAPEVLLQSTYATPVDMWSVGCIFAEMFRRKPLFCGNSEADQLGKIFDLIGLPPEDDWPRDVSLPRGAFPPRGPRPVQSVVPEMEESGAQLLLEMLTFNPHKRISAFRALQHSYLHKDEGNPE
T2 sequence (P24385 whole entry partner): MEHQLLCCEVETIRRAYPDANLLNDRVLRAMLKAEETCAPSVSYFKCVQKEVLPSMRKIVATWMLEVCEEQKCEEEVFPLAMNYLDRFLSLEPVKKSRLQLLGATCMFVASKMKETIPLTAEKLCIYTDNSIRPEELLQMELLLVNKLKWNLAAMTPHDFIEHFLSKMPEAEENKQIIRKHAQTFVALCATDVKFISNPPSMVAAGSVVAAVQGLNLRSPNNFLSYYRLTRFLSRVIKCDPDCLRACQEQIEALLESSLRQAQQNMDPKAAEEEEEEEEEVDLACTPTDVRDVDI

Row | SMILES | IC50 (AurA) | IC50 (CDK4/CycD1) | IC50 (HCT116 cells)
1 | O=C(Nc1nc2[nH]nc(-n3cncc3-c3cccc(F)c3F)c2s1)C1CC1 [Cyclopropanecarboxylic acid {3-[5-(2,3-difluoro-phenyl)-imidazol-1-yl]-1H-pyrazolo[3,4-d]thiazol-5-yl}-amide] | 1000 to 10000 nM | < 100 nM | 100 to 1000 nM
2 | O=C(Nc1nc2[nH]nc(-n3cncc3-c3c(Cl)cccc3Cl)c2s1)C1CC1 [Cyclopropanecarboxylic acid {3-[5-(2,6-dichloro-phenyl)-imidazol-1-yl]-1H-pyrazolo[3,4-d]thiazol-5-yl}-amide] | < 100 nM | < 100 nM | 100 to 1000 nM
3 | O=C(Nc1nc2[nH]nc(-n3cncc3-c3c(Cl)ccc(Cl)c3Cl)c2s1)C1CC1 [Cyclopropanecarboxylic acid {3-[5-(2,3,6-trichloro-phenyl)-imidazol-1-yl]-1H-pyrazolo[3,4-d]thiazol-5-yl}-amide] | < 100 nM | – | 1000 to 10000 nM
4 | O=C(Nc1nc2[nH]nc(-n3cncc3-c3ccccn3)c2s1)C1CC1 [Cyclopropanecarboxylic acid [3-(5-pyridin-2-yl-imidazol-1-yl)-1H-pyrazolo[3,4-d]thiazol-5-yl]-amide] | > 10000 nM | – | 100 to 1000 nM
5 | COc1ccc2nc(Cl)c(-c3cncn3-c3n[nH]c4nc(NC(=O)C5CC5)sc34)cc2c1 [Cyclopropanecarboxylic acid {3-[5-(2-chloro-6-methoxy-quinolin-3-yl)-imidazol-1-yl]-1H-pyrazolo[3,4-d]thiazol-5-yl}-amide] | > 10000 nM | – | –
6 | O=C(Nc1cc[nH]n1)Nc1nc2[nH]nc(-n3cncc3-c3ccccc3Cl)c2s1 [1-{3-[5-(2-Chloro-phenyl)-imidazol-1-yl]-1H-pyrazolo[3,4-d]thiazol-5-yl}-3-(1H-pyrazol-3-yl)-urea] | 1000 to 10000 nM | 100 to 1000 nM | 100 to 1000 nM
7 | O=C(Nc1nc2[nH]nc(-n3cncc3-c3ccccc3)c2s1)C1CC1 [Cyclopropanecarboxylic acid [3-(5-phenyl-imidazol-1-yl)-1H-pyrazolo[3,4-d]thiazol-5-yl]-amide] | 1000 to 10000 nM | – | 100 to 1000 nM
8 | O=C(Nc1nc2[nH]nc(-n3cncc3-c3ccc4ccccc4c3)c2s1)C1CC1 [Cyclopropanecarboxylic acid [3-(5-naphthalen-2-yl-imidazol-1-yl)-1H-pyrazolo[3,4-d]thiazol-5-yl]-amide] | 1000 to 10000 nM | – | –
9 | O=C(Nc1nc2[nH]nc(-n3cncc3-c3ccccc3Cl)c2s1)C1CC1 [Cyclopropanecarboxylic acid {3-[5-(2-chloro-phenyl)-imidazol-1-yl]-1H-pyrazolo[3,4-d]thiazol-5-yl}-amide] | < 100 nM | < 100 nM | 100 to 1000 nM
10 | O=C(Nc1nc2[nH]nc(-n3cncc3-c3cc(Cl)cc(Cl)c3Cl)c2s1)C1CC1 [Cyclopropanecarboxylic acid {3-[5-(2,3,5-trichloro-phenyl)-imidazol-1-yl]-1H-pyrazolo[3,4-d]thiazol-5-yl}-amide] | 100 to 1000 nM | 1000 to 10000 nM | –
11 | CS(=O)(=O)c1ccc(F)cc1-c1cncn1-c1n[nH]c2nc(NC(=O)C3CC3)sc12 [Cyclopropanecarboxylic acid {3-[5-(5-fluoro-2-methanesulfonyl-phenyl)-imidazol-1-yl]-1H-pyrazolo[3,4-d]thiazol-5-yl}-amide] | 100 to 1000 nM | – | –
12 | NC(=O)COc1ccc(-c2cncn2-c2n[nH]c3nc(NC(=O)C4CC4)sc23)c(Cl)c1 [Cyclopropanecarboxylic acid {3-[5-(4-carbamoylmethoxy-2-chloro-phenyl)-imidazol-1-yl]-1H-pyrazolo[3,4-d]thiazol-5-yl}-amide] | 100 to 1000 nM | < 100 nM | –
